Data as given in patent publication US20130131116A1, “PEST CONTROL COMPOSITION” (SUMITOMO CHEMICAL COMPANY, LIMITED, priority 2010, published 2013).

System: not given
Experiment: not given
Details: not given

Row | melting point [°C] | Compound
1 | 131 | COc1ccc(C(=O)NNc2cc(C3=NOC(c4cc(Cl)cc(Cl)c4)(C(F)(F)F)C3)ccc2Cl)cc1 (stereo not drawn)
2 | 92 | CCC(=O)NNc1cc(C2=NOC(c3cc(Cl)cc(Cl)c3)(C(F)(F)F)C2)ccc1Cl (stereo not drawn)
3 | 105 | O=C(NNc1cc(C2=NOC(c3cc(Cl)cc(Cl)c3)(C(F)(F)F)C2)ccc1Cl)c1ccccc1 (stereo not drawn)
4 | 212 | CN(C)C(=O)NNc1cc(C2=NOC(c3cc(Cl)cc(Cl)c3)(C(F)(F)F)C2)ccc1Cl (stereo not drawn)
5 | 142 | CC(=O)NN(C(=O)c1ccccc1)c1cc(C2=NOC(c3cc(Cl)cc(Cl)c3)(C(F)(F)F)C2)ccc1Cl (stereo not drawn)
6 | 100 | CC(=O)NNc1cccc(C2=NOC(c3cc(Cl)cc(Cl)c3)(C(F)(F)F)C2)c1 (stereo not drawn)
7 | 107 | CC(=O)N(NC(=O)c1ccccc1)c1cc(C2=NOC(c3cc(Cl)cc(Cl)c3)(C(F)(F)F)C2)ccc1Cl (stereo not drawn)
8 | 157 | O=C(CCC(F)(F)F)NN(C(=O)c1ccccc1)c1cc(C2=NOC(c3cc(Cl)cc(Cl)c3)(C(F)(F)F)C2)ccc1Cl (stereo not drawn)
9 | 94 | CC(=O)NNc1cc(C2=NOC(c3cc(Cl)cc(Cl)c3)(C(F)(F)F)C2)ccc1Cl (stereo not drawn)
10 | 160 | CC(=O)N(NC(=O)C1CC1)c1cc(C2=NOC(c3cc(Cl)cc(Cl)c3)(C(F)(F)F)C2)ccc1Cl (stereo not drawn)
11 | 119 | C=CC(=O)NN(C(=O)OC(C)(C)C)c1cc(C2=NOC(c3cc(Cl)cc(Cl)c3)(C(F)(F)F)C2)ccc1Cl (stereo not drawn)
12 | 164 | COCC(=O)NN(C(C)=O)c1cc(C2=NOC(c3cc(Cl)cc(Cl)c3)(C(F)(F)F)C2)ccc1Cl (stereo not drawn)
13 | 88 | CC(=O)N(C)Nc1cccc(C2=NOC(c3cc(Cl)cc(Cl)c3)(C(F)(F)F)C2)c1 (stereo not drawn)
14 | 205 | O=C(NNc1cc(C2=NOC(c3cc(Cl)cc(Cl)c3)(C(F)(F)F)C2)ccc1Cl)c1cccnc1 (stereo not drawn)
15 | 126 | FC(F)(F)C1(c2cc(Cl)cc(Cl)c2)CC(c2ccc(Cl)c(NNC(=S)NC3CCCCC3)c2)=NO1 (stereo not drawn)
16 | 213 | FC(F)(F)C1(c2cc(Cl)cc(Cl)c2)CC(c2ccc(Cl)c(NNC(=S)Nc3ccccc3)c2)=NO1 (stereo not drawn)
17 | 64 | O=C(NNc1cc(C2=NOC(c3cc(Cl)cc(Cl)c3)(C(F)(F)F)C2)ccc1Cl)C(F)(F)F (stereo not drawn)
18 | 201 | O=C(NNc1cc(C2=NOC(c3cc(Cl)cc(Cl)c3)(C(F)(F)F)C2)ccc1Cl)Nc1ccc([N+](=O)[O-])cc1 (stereo not drawn)
19 | 79 | CC(=O)N(C)N(C(=O)OC(C)(C)C)c1cccc(C2=NOC(c3cc(Cl)cc(Cl)c3)(C(F)(F)F)C2)c1 (stereo not drawn)
20 | 115 | O=C(NNc1cc(C2=NOC(c3cc(Cl)cc(Cl)c3)(C(F)(F)F)C2)ccc1Cl)c1ccncc1 (stereo not drawn)
21 | 82 | CCCC(=O)NNc1cc(C2=NOC(c3cc(Cl)cc(Cl)c3)(C(F)(F)F)C2)ccc1Cl (stereo not drawn)
22 | 131 | O=C(NNc1cc(C2=NOC(c3cc(Cl)cc(Cl)c3)(C(F)(F)F)C2)ccc1Cl)Nc1ccccc1 (stereo not drawn)
23 | 108 | CC(=O)NN(C(C)=O)c1cc(C2=NOC(c3cc(Cl)cc(Cl)c3)(C(F)(F)F)C2)ccc1Cl (stereo not drawn)
24 | 151 | CC(=O)N(C)N(C)c1cccc(C2=NOC(c3cc(Cl)cc(Cl)c3)(C(F)(F)F)C2)c1 (stereo not drawn)
25 | 180 | CC(C)(C)OC(=O)N(NC(=O)C1CC1)c1cc(C2=NOC(c3cc(Cl)cc(Cl)c3)(C(F)(F)F)C2)ccc1Cl (stereo not drawn)
26 | 231 | O=C(NNc1cc(C2=NOC(c3cc(Cl)cc(Cl)c3)(C(F)(F)F)C2)ccc1Cl)c1ccc([N+](=O)[O-])cc1 (stereo not drawn)
27 | 90 | C=CC(=O)NNc1cc(C2=NOC(c3cc(Cl)cc(Cl)c3)(C(F)(F)F)C2)ccc1Cl (stereo not drawn)
28 | 172 | O=C(NN(C(=O)c1ccccc1)c1cc(C2=NOC(c3cc(Cl)cc(Cl)c3)(C(F)(F)F)C2)ccc1Cl)C1CC1 (stereo not drawn)
29 | 205 | O=C(/C=C/c1ccccc1)NNc1cc(C2=NOC(c3cc(Cl)cc(Cl)c3)(C(F)(F)F)C2)ccc1Cl (stereo not drawn)
30 | 71 | Cc1ccc(C2=NOC(c3cc(Cl)cc(Cl)c3)(C(F)(F)F)C2)cc1NNC(=O)OC(C)C (stereo not drawn)

System: Haemaphysalis longicornis
Experiment: Test Example 3: Insecticidal Test on Haemaphysalis longicornis By Treating Glass Surface
Type: in vivo
Details: Haemaphysalis longicornis, 48 h, read-out: Mortality Rate (%)
Description: Acetone solutions were each prepared for the present hydrazide compounds and the present ester compounds. To inner walls of a glass screw tube and lid (NO. 5, manufactured by Maruemu Corporation), 0.2 mL of the acetone solution was uniformly applied. […] The lid is closed tightly, and the number of dead ticks is examined after 2 days.

Row | Compound | mortality at 0.032 mg/m2 [%] | mortality at 0.16 mg/m2 [%] | mortality at 0.8 mg/m2 [%] | mortality at 0.0064 mg/m2 [%]
31 | O=C(CCC(F)(F)F)NNc1cc(C2=NOC(c3cc(Cl)cc(Cl)c3)(C(F)(F)F)C2)ccc1Cl (stereo not drawn) [Present hydrazide compound (17), N′-{5-[5-(3,5-dichlorophenyl)-5-trifluoromethyl-4,5-dihydroisoxazol-3-yl]-2-chlorophenyl}-4,4,4-trifluorobutyrohydrazide] | 3.3 | 40 |  | 
32 | CC(C)=CC1(C=C(Cl)Cl)C(C(=O)OCc2cccc(Oc3ccccc3)c2)C1(C)C (stereo not drawn) [Present ester compound (2), 3-phenoxybenzyl 3-(2,2-dichlorovinyl)-2,2-dimethyl-3-(2-methylprop-1-enyl)cyclopropanecarboxylate, reference compound] |  |  | 13 | 
33 | CN(NC(=O)CCC(F)(F)F)c1cc(C2=NOC(c3cc(Cl)cc(Cl)c3)(C(F)(F)F)C2)ccc1Cl (stereo not drawn) [Present hydrazide compound (31), N′-methyl-N′-{2-chloro-5-[5-(3,5-dichlorophenyl)-5-trifluoromethyl-4,5-dihydroisoxazol-3-yl]phenyl}-4,4,4-trifluorobutyrohydrazide] |  |  |  | 3.3

Same assay, conditions: ester compound alone 0.8 mg/m^2, glass surface, after 2 days

Row | Compound | Mortality Rate (%)
34 | CC(C)=C[C@@H]1[C@@H](C(=O)O[C@H](C#N)c2cccc(Oc3ccccc3)c2)C1(C)C (relative stereo) [Present ester compound (3), (1S)-α-cyano-3-phenoxybenzyl (1R)-trans-2,2-dimethyl-3-(2-methylprop-1-enyl)cyclopropanecarboxylate, reference compound] | 10

Same assay, conditions: ester compound alone 4 mg/m^2, glass surface, after 2 days

Row | Compound | Mortality Rate (%)
35 | 3-phenoxybenzyl (1R)-cis/trans-2,2-dimethyl-3-(2-methylprop-1-enyl)cyclopropanecarboxylate [Present ester compound (1), reference compound] | 15
